Consider eleven molecules from patent US20260297095A1, “NOVEL PYRROLOTRIAZINE DERIVATIVE AND USE THEREOF” (Pelemed Co., Ltd., priority 2024, published 2026).

Experiment [1] deals with KYSE-70 esophageal cancer cell line. Briefly: Cell growth inhibition of KYSE-70 (Sulforhodamine B). To be noted: KYSE-70, 72 hours, read-out: KYSE70 GI50. Type of experiment: cell-based. In short, it runs like this:
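KYSE-70 cells (YES1-amplified) in RPMI-1640 with 10% FBS were seeded 24 h before treatment with compound at 0.0046–10 µM final. After 72 h, cells were TCA-fixed and stained with sulforhodamine B, with absorbance read at 510 nm. GI50 was derived with a time-zero plate set to 0% and the vehicle control to 100%, in duplicate tests.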

For a further experiment, the target named is T1, TEAD (Homo sapiens).
T1 construct: lentiviral TEAD luciferase reporter read-out
T1 sequence (P07947 whole entry): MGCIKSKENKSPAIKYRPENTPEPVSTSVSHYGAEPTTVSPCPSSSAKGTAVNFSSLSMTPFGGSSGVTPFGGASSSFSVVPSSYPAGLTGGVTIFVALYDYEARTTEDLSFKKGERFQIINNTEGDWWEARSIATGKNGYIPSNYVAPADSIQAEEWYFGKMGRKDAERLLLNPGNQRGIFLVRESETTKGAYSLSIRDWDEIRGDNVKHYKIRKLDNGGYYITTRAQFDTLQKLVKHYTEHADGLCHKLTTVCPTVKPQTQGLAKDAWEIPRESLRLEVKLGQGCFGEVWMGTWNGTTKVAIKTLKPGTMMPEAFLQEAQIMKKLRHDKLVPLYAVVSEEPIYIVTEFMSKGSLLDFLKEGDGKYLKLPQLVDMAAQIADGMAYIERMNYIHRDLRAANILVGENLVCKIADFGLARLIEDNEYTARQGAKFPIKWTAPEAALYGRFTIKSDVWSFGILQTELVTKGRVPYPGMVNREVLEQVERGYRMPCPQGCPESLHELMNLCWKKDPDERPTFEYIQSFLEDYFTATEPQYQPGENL
Kind of experiment: TEAD inhibition, KYSE-70 TEAD luciferase reporter cell line. Type of experiment: cell-based. The note with it: KYSE-70 TEAD luciferase reporter cells, 24 hours, normalized by cell viability; read-out: KYSE70 TEAD IC50. How it is done: To evaluate the inhibitory activity on TEAD activity in KYSE-70 cells in which YES1 is overexpressed, the following experiment was performed.
TEAD luciferase reporter lentivirus (BPS Bioscience; TEAD luciferase reporter lentivirus) was co-cultured with KYSE-70 cell line for 48 hours, and then 1 μg/ml puromycin (Invitrogen) was added to the culture to induce cell death only in cells that were not infected with the virus, thereby generating a KYSE-70 cell line into which the TEAD luciferase reporter was introduced. The KYSE-70 TEAD luciferase reporter cell line was cultured in RPMI-1640 (Capricorn) supplemented with 10% FBS (Cellgro). The cells were seeded 24 hours prior to compound treatment into two 96-well F-bottom clear plates (Greiner) and two white clear bottom 96-well plates (Greiner), at 20,000 cells in 180 μL medium per well.
The 10 mM compound was diluted 100-fold in medium to prepare a 100 μM compound, then placed in a 96-well plate and further 3-fold diluted in medium to prepare a compound plate with concentrations ranging from 0.046 μM to 100 μM. 20 μL of each compound from the drug plate was injected into the cell-seeded plates to prepare the final concentrations 0.0046 μM to 10 μM. For TEAD activity measurement, 24 hours after compound treatment on the white clear bottom 96-well plate, 100 μL of medium was removed from each well, and 100 μL of One-Step™ Luciferase Assay System solution was added. After reacting at room temperature for 15 minutes, luminescence intensity was measured using a microplate reader (VICTOR X3, PerkinElmer). Since TEAD activity values needed to be normalized by cell viability, a cell viability assay was also performed. For measuring cell viability, 24 hours after compound treatment on the 96-well F-bottom clear plate, 50 μL of 33% trichloroacetic acid was added to each well and was fixed by incubating at 4° C. for 1 hour. After that, the plate was washed 5 times with sterile water, and 100 μL of 0.04% Sulforhodamine B solution in 1% acetic acid was added to react for 1 hour to stain the cells. After staining, the plates were washed 4 times with 1% acetic acid solution and completely dried. Then the Sulforhodamine B bound to cellular proteins was completely dissolved with 10 mM Tris base solution (pH 10.5). The absorbance was measured at a wavelength of 510 nm using a microplate reader (TECAN, sunrise microplate reader). The TEAD activity value and cell viability value were normalized, and a graph was drawn using the GraphPad Prism version 5.0 program, and the IC50 value was calculated.
On the technique in general: In a reporter assay the amount or activity of a reporter protein is the signal.

A further experiment addresses YES1 kinase (Homo sapiens, UniProt P07947). Kind of experiment: YES1 kinase inhibition, ADP Glo assay (Promega). Type of experiment: biochemical. The note with it: for YES1 enzyme, % inhibition, 10 nM / inhibition at 0.01 µM: compound 10 nM; for YES1 enzyme, % inhibition, 100 nM / inhibition at 0.1 µM: compound 100 nM; for inhibition at 0.01 µM: read-out: YES1 enzyme, % inhibition, 10 nM; for inhibition at 0.1 µM: read-out: YES1 enzyme, % inhibition, 100 nM; for YES1 kinase inhibition at 1 nM (in words) / inhibition at 0.001 µM: compound 1 nM; for inhibition at 0.001 µM: read-out: YES1 enzyme, % inhibition, 1 nM. In short, it runs like this:
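YES1 kinase was preincubated 10 min with compound in Mn2+/DTT-containing kinase buffer, then reacted 40 min at room temperature with ATP/substrate; ADP was detected by ADP-Glo luminescence. Activity, background-subtracted and normalised to negative control, is given as % inhibition at 1, 10 and 100 nM, plus IC50.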
A general note: In ADP-Glo the light output rises with the ADP produced.

Like-named read-outs stand apart in the source and are kept apart here. Where only a bound is given, the exact number is not on record here.

Chain of YES1 kinase (P07947 whole entry): as above

As a reminder, the GI50 is the concentration at which growth is held to half of that of the control. What is called IC50 is the point on the concentration scale where inhibition reaches its midpoint. “tert-butyl (4-(4-amino-7-(4-aminopiperidin-1-yl)-6-methylpyrrolo[2,1-f][1,2,4]triazin-5-yl)-2-methoxyphenyl)carbamate [Example 78]”: the GI50 in experiment [1] was at most 0.1 µM. In addition, at TEAD (Homo sapiens), the IC50 is at most 0.1 µM.
For the molecule “tert-butyl (4-(4-amino-7-(4-(methylamino)piperidin-1-yl)pyrrolo[2,1-f][1,2,4]triazin-5-yl)-2-methoxyphenyl)carbamate [Example 58]”, in experiment [1], the concentration for 50% growth inhibition (GI50) lay within 0.1 to 1 µM. Also, the 50% inhibitory concentration (IC50) on TEAD (Homo sapiens) is at most 0.1 µM; on YES1 kinase (class symbols, read-out: YES1 enzyme, IC50), at most 0.1 µM.
Take “tert-butyl (4-(4-amino-7-(4-(dimethylamino)-4-methylpiperidin-1-yl)pyrrolo[2,1-f][1,2,4]triazin-5-yl)-2-methoxyphenyl)carbamate [Example 13]”: the 50% growth inhibitory concentration (GI50) in experiment [1] is at most 0.1 µM. At TEAD (Homo sapiens), the concentration for half-maximal inhibition (IC50) is at most 0.1 µM. At YES1 kinase, the “YES1 enzyme, % inhibition, 10 nM” value stood at 77% and the “YES1 enzyme, % inhibition, 100 nM” value came to 93%.
As to “tert-butyl (4-(4-amino-7-(4-(tert-butyl)piperazin-1-yl)pyrrolo[2,1-f][1,2,4]triazin-5-yl)-2-methoxyphenyl)carbamate [Example 16]”, the concentration for 50% growth inhibition (GI50) in experiment [1] lay in the range of 1 to 10 µM. Further, the IC50 at TEAD (Homo sapiens) lay in the range of 1 to 10 µM. Besides, on YES1 kinase, the “YES1 enzyme, % inhibition, 10 nM” value is 30% and the “YES1 enzyme, % inhibition, 100 nM” value was determined as 36%.
In general, inhibition refers to how much of the control response was suppressed. As for `CNC1CCN(CCc2cc(-c3ccc(NC(=O)OC(C)(C)C)c(OC)c3)c3c(N)ncnn23)CC1` [Example 99, tert-butyl (4-(4-amino-7-(2-(4-(methylamino)piperidin-1-yl)ethyl)pyrrolo[2,1-f][1,2,4]triazin-5-yl)-2-methoxyphenyl)carbamate], the concentration for 50% growth inhibition (GI50) in experiment [1] (Homo sapiens) is at most 0.1 µM. Further, at YES1 kinase, the inhibition at 0.01 µM amounted to 71% and the inhibition at 0.1 µM came to 90%.
Take `COc1cc(-c2cc(N3CCC(N)C(C)C3)n3ncnc(N)c23)ccc1NC(=O)OC(C)(C)C` (centres unmarked) [Example 48, tert-butyl (4-(4-amino-7-(4-amino-3-methylpiperidin-1-yl)pyrrolo[2,1-f][1,2,4]triazin-5-yl)-2-methoxyphenyl)carbamate]: the concentration for 50% growth inhibition (GI50) in experiment [1] (Homo sapiens) is at most 0.1 µM. Moreover, at YES1 kinase, the inhibition at 0.01 µM was found to be 70% and the inhibition at 0.1 µM turned out to be 96%.
In the case of `COc1cc(-c2cc(N[C@H]3C[C@H](N)C3)n3ncnc(N)c23)ccc1NC(=O)OC(C)(C)C` [Example 119, tert-butyl (4-(4-amino-7-(((1r,3r)-3-aminocyclobutyl)amino)pyrrolo[2,1-f][1,2,4]triazin-5-yl)-2-methoxyphenyl)carbamate], the GI50 in experiment [1] (Homo sapiens) was 0.1 to 1 µM. On YES1 kinase, the “YES1 kinase inhibition at 1 nM (in words)” value is “could be inhibited even at a low concentration of 1 nM”, the inhibition at 0.001 µM turned out to be 24% and the inhibition at 0.01 µM worked out at 55%.
In the case of “tert-butyl (4-(4-amino-7-(6-(dimethylamino)pyridin-3-yl)pyrrolo[2,1-f][1,2,4]triazin-5-yl)-2-methoxyphenyl)carbamate [Example 6]”, the GI50 in experiment [1] lay within 1 to 10 µM. Also, the concentration for half-maximal inhibition (IC50) on TEAD (Homo sapiens) was at most 0.1 µM. At YES1 kinase, the “YES1 enzyme, % inhibition, 10 nM” value stood at 41% and the “YES1 enzyme, % inhibition, 100 nM” value came out at 46%.
As to `COc1cc(-c2cc(-c3ccc(N(C)C)c(C)c3)n3ncnc(N)c23)ccc1NC(=O)OC(C)(C)C` [Example 3, tert-butyl (4-(4-amino-7-(4-(dimethylamino)-3-methylphenyl)pyrrolo[2,1-f][1,2,4]triazin-5-yl)-2-methoxyphenyl)carbamate], the concentration for 50% growth inhibition (GI50) in experiment [1] (Homo sapiens) was over 10 µM. Besides, on YES1 kinase, the inhibition at 0.01 µM was 44% and the inhibition at 0.1 µM was 49%.
Take “tert-butyl (4-(4-amino-7-(4-(dimethylamino)-3-methoxyphenyl)pyrrolo[2,1-f][1,2,4]triazin-5-yl)-2-methoxyphenyl)carbamate [Example 5]”: in experiment [1], the GI50 fell in the range of 0.1 to 1 µM. For the same molecule, the IC50 at TEAD (Homo sapiens) was 0.1 to 1 µM. Further, on YES1 kinase, the “YES1 enzyme, % inhibition, 10 nM” value stood at 38% and the “YES1 enzyme, % inhibition, 100 nM” value worked out at 68%.
In the case of `COc1cc(-c2cc(N3CCC(CO)CC3)n3ncnc(N)c23)ccc1NC(=O)OC(C)(C)C` [Example 102, tert-butyl (4-(4-amino-7-(4-(hydroxymethyl)piperidin-1-yl)pyrrolo[2,1-f][1,2,4]triazin-5-yl)-2-methoxyphenyl)carbamate], the GI50 in experiment [1] (Homo sapiens) was in the range of 0.1 to 1 µM. Besides, at YES1 kinase, the “YES1 kinase inhibition at 1 nM (in words)” value is listed as “could be inhibited even at a low concentration of 1 nM”, the inhibition at 0.001 µM was found to be 11% and the inhibition at 0.01 µM was 39%.
